Read-outs that look alike come from different tables or passages of the source.
How the values were obtained:
Gram-negative pathogens = assay: Antibacterial activity against Gram-negative pathogens in vitro (overall statements); type: cell-based; conditions: Table 1 pathogens overall
Source text: (§1) The in vitro activity of compounds provided herein may be assessed by standard testing procedures such as the determination of minimum inhibitory concentration (MIC) as described in Approved Standard. Methods for Dilution Antimicrobial Susceptibility Tests for Bacteria that Grow Aerobically, 3rd ed., 1993, published by the National Committee for Clinical Laboratory standards, Villanova, Pa., USA. Low MIC values indicate high antibacterial activity, while high MIC values reveal a reduced antibacterial activity (with higher drug concentration required for pathogen eradication in the latter instance).

P. aeruginosa [1] = assay: MIC determination, antibacterial activity in vitro; type: cell-based, Pseudomonas aeruginosa; conditions: for MIC: Pseudomonas aeruginosa, read-out: MIC against P. aeruginosa; for reduced potency / loss of activity vs. P. aeruginosa compared to Example 7: MIC ratio vs Example 7
Source text: as §1

P. aeruginosa [2] = assay: P. aeruginosa neutropenic mouse thigh infection model; type: in vivo; conditions: for CFU reduction / CFU reduction, fold: side-by-side test Example 1 vs Example 10, dose not given; for reduction in the bacterial colony-forming units (CFU) / reduction in the bacterial colony-forming units (CFU), fold: 30 mg/kg
Procedure: To establish the efficacy of the compounds provided herein in vivo, testing in a P. aeruginosa neutropenic mouse thigh infection model was performed with subcutaneous administration of test compounds analogously to the method described by Andes et al. in Antimicrobial Agents and Chemotherapy, 2002, 46(11), 3484-3489. In this model, a greater reduction in the bacterial colony-forming units (CFU) indicates more beneficial therapeutic effect (more bacterial eradication), while a lower CFU reduction indicates a lower effect (less bacterial eradication). The in vivo antibacterial effect is also referred to as efficacy, in contrast to the term potency commonly used for in vitro activity (expressed as MIC).

[3] = rat PK model of intravenous administration; type: in vivo; conditions: for AUC: in vivo
Source text: To further elucidate therapeutic potential of drug compounds, pharmacokinetic (PK) data is used to establish the key parameters predictive of the therapy outcome, such as area under the curve (AUC) for a plot monitoring the change in the systemic drug concentration over time. Thus, a higher AUC value indicates a greater exposure to the drug, commonly associated with a greater therapeutic potential due to a higher amount of drug available to combat the infection in a mammal. In contrast, a lower AUC value indicates a reduced exposure to the drug under study, resulting in a reduced amount of antibiotic available to combat bacterial infestations. To that end, the compounds provided herein have been tested in the rat PK model of intravenous administration performed analogously to methods described in the monograph Current Protocols in Pharmacology, 2005, 7.1.1-7.1.26, John Wiley & Sons, Inc.

A. baumannii = assay: MIC determination, antibacterial activity in vitro; type: cell-based, Acinetobacter baumannii; conditions: for reduced potency / loss of activity vs. A. baumannii compared to Example 7: MIC ratio vs Example 7; for MIC: Acinetobacter baumannii, Strain A. baumannii MABA0001, read-out: MIC, A. baumannii (footnote b)
Source text: as §1

E. coli = assay: MIC determination, antibacterial activity in vitro; type: cell-based, Escherichia coli; conditions: MIC ratio vs Example 24
Source text: as §1

K. pneumoniae = assay: MIC determination, antibacterial activity in vitro; type: cell-based, Klebsiela pneumoniae; conditions: for MIC: Klebsiella pneumoniae, Strain K. pneumoniae KPN1004, read-out: MIC, K. pneumoniae (footnote c)
Source text: as §1

[4] = intravenous, dose not given, Example 1 vs Example 10, read-out: AUC
[5] = subcutaneous, side-by-side test Example 3 vs Example 24
[6] = another test, side-by-side Example 3 vs Example 25
[7] = intravenous, 10 mg/kg, read-out: exposure (AUC)

Compound: Cl.NC[C@H]1OB2O[C@H](CO)COc3c(F)ccc1c32 [Example 18, ((2S,8R)-2-(Aminomethyl)-5-fluoro-7,8-dihydro-2H-1,6,9-trioxa-9a-borabenzo[cd]azulen-8-yl)methanol hydrochloride]
- antibacterial activity (potency) in words (Gram-negative pathogens): reduced activity

Compound: Cl.NCC1OB(O)c2c(OCCCO)cccc21 (stereo not drawn) [Reference Example 10, 3-(Aminomethyl)-7-(3-hydroxypropoxy)benzo[c][1,2]oxaborol-1(3H)-ol hydrochloride, reference compound]
- MIC (P. aeruginosa [1]): 8 µg/mL
- CFU reduction (P. aeruginosa [2]): about 1.3 log
- CFU reduction, fold (P. aeruginosa [2]): about 20 fold
- AUC [3, 4]: ~5370 ng·h/mL

Compound: Cl.NCC1OB2OC(CCO)COc3cccc1c32 (stereo not drawn) [Example 12, 2-(2-(Aminomethyl)-7,8-dihydro-2H-1,6,9-trioxa-9a-borabenzo[cd]azulen-8-yl)ethanol hydrochloride]
- reduced potency / loss of activity vs. P. aeruginosa compared to Example 7 (P. aeruginosa [1]): 4 fold
- activity vs. A. baumannii in words (A. baumannii; compared to Example 7): total loss of activity

Compound: Cl.NC[C@H]1OB2O[C@H](CO)COc3cccc1c32 [Example 3, ((2S,8R)-2-(Aminomethyl)-7,8-dihydro-2H-1,6,9-trioxa-9a-borabenzo[cd]azulen-8-yl)methanol hydrochloride]
- improved activity against E. coli as compared to reference compound of Example 24 (E. coli): 2 fold
- improved activity against P. aeruginosa as compared to reference compound of Example 24 (P. aeruginosa [1]; MIC ratio vs Example 24): 2 fold
- MIC (P. aeruginosa [1]): 2 to 4 µg/mL
- improved activity against K. pneumoniae as compared to reference compound of Example 24 (K. pneumoniae; MIC ratio vs Example 24): 2 fold
- higher degree of pathogen reduction compared to reference compound of Example 24 (P. aeruginosa [2]; 30 mg/kg both agents): over 80 fold
- more efficient in thigh infection model compared to reference compound of Example 25 (P. aeruginosa [2]; 30 mg/kg both agents): about 12 fold
- reduction in the bacterial colony-forming units (CFU) (P. aeruginosa [2]; [5]): about 3.6 log
- reduction in the bacterial colony-forming units (CFU), fold (P. aeruginosa [2]; [5]): about 3981 fold
- reduction in the bacterial colony-forming units (CFU) (P. aeruginosa [2]; [6]): about 3.44 log
- reduction in the bacterial colony-forming units (CFU), fold (P. aeruginosa [2]; [6]): about 2754 fold
- AUC [3, 7]: ~14100 ng·h/mL
- improvement in exposure (AUC) over reference compound of Example 24 ([3]; intravenous, 10 mg/kg): 2.7 fold
- improvement in exposure (AUC) over reference compound of Example 25 ([3]; intravenous, 10 mg/kg): over 2 fold

Compound: Cl.NCC1OB(O)c2c(OCC[C@H](O)CO)cccc21 (stereo partly drawn) [compound 22, (2S)-4-((3-(Aminomethyl)-1-hydroxy-1,3-dihydrobenzo[c][1,2]oxaborol-7-yl)oxy)butane-1,2-diol hydrochloride]
- antibacterial activity (potency) in words (Gram-negative pathogens): essentially inactive

Compound: CC(O)C1COc2cccc3c2B(OC3CN)O1.Cl (stereo not drawn) [Example 14, 1-(2-(Aminomethyl)-7,8-dihydro-2H-1,6,9-trioxa-9a-borabenzo[cd]azulen-8-yl)ethanol hydrochloride]
- reduced potency / loss of activity vs. A. baumannii compared to Example 7 (A. baumannii): about 4 fold

Compound: Cl.NCC1OB2OCC(CO)Oc3cccc1c32 (stereo not drawn) [Example 11, (2-(Aminomethyl)-7,8-dihydro-2H-1,6,9-trioxa-9a-borabenzo[cd]azulen-7-yl)methanol hydrochloride]
- reduced potency / loss of activity vs. P. aeruginosa compared to Example 7 (P. aeruginosa [1]): 4 fold
- reduced potency / loss of activity vs. A. baumannii compared to Example 7 (A. baumannii): 4 fold

Compound: Cl.NCC1OB(O)c2c(OCC(CO)CO)cccc21 (stereo not drawn) [compound 23, 2-(((3-(Aminomethyl)-1-hydroxy-1,3-dihydrobenzo[c][1,2]oxaborol-7-yl)oxy)methyl)propane-1,3-diol hydrochloride]
- antibacterial activity (potency) in words (Gram-negative pathogens): essentially inactive

Compound: Cl.NCC1OB2O[C@H](CO)COc3cccc1c32 (stereo partly drawn) [Example 1, ((8R)-2-(Aminomethyl)-7,8-dihydro-2H-1,6,9-trioxa-9a-borabenzo[cd]azulen-8-yl)methanol hydrochloride]
- MIC (P. aeruginosa [1]): 2 to 4 µg/mL
- superiority in the bacterial reduction over Example 10 (P. aeruginosa [2]; side-by-side test): 79 fold
- CFU reduction (P. aeruginosa [2]): about 3.2 log
- CFU reduction, fold (P. aeruginosa [2]): about 1584 fold
- AUC [3, 4]: ~11500 ng·h/mL
- improvement in exposure (AUC) over reference compound of Example 10 ([3]; intravenous): more than 2 fold

Compound: Cl.NC[C@H]1OB(O)c2c(OCCCO)cccc21 [compound 25, (S)-3-(Aminomethyl)-7-(3-hydroxypropoxy)benzo[c][1,2]oxaborol-1(3H)-ol hydrochloride, reference compound]
- reduction in the bacterial colony-forming units (CFU) (P. aeruginosa [2]; [6]): about 2.37 log
- reduction in the bacterial colony-forming units (CFU), fold (P. aeruginosa [2]; [6]): about 234 fold
- AUC ([3]; iv, 10 mg/kg): ~6240 ng·h/mL
- antibacterial activity (potency) in words (Gram-negative pathogens): active

Compound: Cl.NCC1OB2OCCOc3cccc1c32 (stereo not drawn) [compound 24, (7,8-Dihydro-2H-1,6,9-trioxa-9a-borabenzo[cd]azulen-2-yl)methanamine hydrochloride, reference compound]
- reduction in the bacterial colony-forming units (CFU) (P. aeruginosa [2]; [5]): about 1.7 log
- reduction in the bacterial colony-forming units (CFU), fold (P. aeruginosa [2]; [5]): about 50 fold
- AUC [3, 7]: ~5300 ng·h/mL

Compound: CC1(CO)COc2cccc3c2B(OC3CN)O1.Cl (stereo not drawn) [Example 13, (2-(Aminomethyl)-8-methyl-7,8-dihydro-2H-1,6,9-trioxa-9a-borabenzo[cd]azulen-8-yl)methanol hydrochloride]
- reduced potency / loss of activity vs. A. baumannii compared to Example 7 (A. baumannii): about 4 fold

Compound: Cl.NCC1OB2O[C@@H](CO)COc3cccc1c32 (stereo partly drawn) [Example 4, ((8S)-2-(Aminomethyl)-7,8-dihydro-2H-1,6,9-trioxa-9a-borabenzo[cd]azulen-8-yl)methanol hydrochloride]
- MIC (P. aeruginosa [1]): 2 to 4 µg/mL
- MIC (A. baumannii): 4000 µg/mL
- MIC (K. pneumoniae): 2000 µg/mL

Compound: Cl.NCC1OB2OC(CO)COc3cccc1c32 (stereo not drawn) [Example 7]
- MIC (P. aeruginosa [1]): 2 to 4 µg/mL
- MIC (A. baumannii): 4000 µg/mL
- MIC (K. pneumoniae): 4000 µg/mL
